Measured values as given in article PMC9024338, “Bruceine H Mediates EGFR-TKI Drug Persistence in NSCLC by Notch3-Dependent β-Catenin Activating FOXO3a Signaling” (Frontiers in Oncology, 2022).

Key:
A549 cells [1] = test: cells; type: cell-based, human; details: A549, 48 h; read-out: IC50 (48 h)
Procedure: (§1) The human NSCLC cell lines (A549, PC-9, and PC-9/GR) and other cell lines (16HBE and LO2) were purchased from the American Type Culture Collection (ATCC, Manassas, VA, USA). […] All cell lines were cultivated at 37°C under 5% CO2.
(§2) The Cell Counting Kit-8 assays (Beyotime, Shanghai, China) were performed to assess cell viability. […] Microplate readers (Infinite F500, Tecan, Mannedorf, Switzerland) were used to measure the absorbance (A) at 450 nm. All samples were assessed in triplicate.

PC-9 cells = test: cells; type: cell-based, human; details: PC-9, 48 h; read-out: IC50
Procedure: as §1, §2

A549 cells [2] = test: Transwell migration and Matrigel invasion assays; type: cell-based, human; details: dose-dependent, 12 h treatment
Procedure: The Transwell insert in a 24-well plate (8 μm, Corning, NY, USA) was taken out, and a 600-μl medium containing 10% FBS was added to the bottom chamber. The A549 cells were resuspended with 10% FBS culture medium, and the diluted cell suspension (3 × 10^5/300 μl) was cultured in the top chamber and then incubated with or without Matrigel (BD BioCoat). After 12 h, the medium in the top chamber was changed to RPMI-1640 without FBS, and BD or BH with different concentrations was added ([31]). After an additional 12 h, the cells that migrated or invaded the bottom side of the polycarbonate film were fixed with methanol for 30 min and then stained for 15 min with 0.1% crystal violet (Solarbio), after which their number was assessed under a microscope (×4, Nikon).

16HBE cells = test: Toxicity to normal human cell line 16HBE (Figure S1); type: cell-based
Procedure: (§3) Figure S1. The toxicity of Bruceine H (BH) and Bruceine D (BD) to 16HBE (A) and LO2 (B) cells was evaluated.

LO2 cells = test: Toxicity to normal human cell line LO2 (Figure S1); type: cell-based
Procedure: as §3

PC-9/GR cells = test: Apoptosis by flow cytometry (Annexin V-FITC/PI), PC-9/GR; type: cell-based, human; details: low-dose BH (4, 8 μM), gefitinib 25 μM, alone or combined
Procedure: After being digested with trypsin without EDTA, the cells were washed gently with culture medium and twice with cold PBS. The pellet was resuspended in 400 μl of 1× binding buffer, the resuspended cells were transferred to flow tubes, then Annexin V-FITC (5 μl) and propidium iodide (10 μl) were added, and the mixture was incubated for 15 min at room temperature in the dark. The percentage of apoptotic cells was determined by flow cytometry (Backman, CA, USA) and FlowJo V10 software.

PC-9/GR xenografts = PC-9/GR xenografts in BALB/c nude mice; type: in vivo; details: BH 2.5 mg/kg, gefitinib 25 mg/kg, alone or co-administered, intragastric
[3] = Toxicity study in nude mice: organ index, blood routine, serum biochemistry; type: in vivo
Procedure: At the end of the experiment, blood samples were taken and analyzed by blood routine. […] The lungs and spleen were weighed and recorded. H&E staining of the heart, liver, spleen, lungs, and kidneys was performed to evaluate the cytotoxic effects of BH.

[4] = nude mice serum, mean ± SD (Table S4)
[5] = nude mice, routine blood (Table S3)

**Q.** For `CC1=CC(=O)[C@@H](O)[C@]2(C)[C@H]3[C@@H](O)[C@H](O)[C@@]4(C)OC[C@@]35[C@@H](C[C@@H]12)OC(=O)[C@H](O)[C@]54O` [BD, bruceine D, reference compound], which IC50 (A549 cells [1]) is on record?
**A.** Its IC50 is 26.8 µM.

**Q.** What about the IC50 (PC-9 cells) of the same compound?
**A.** The IC50 was 21.8 µM.

**Q.** And the “Transwell migration and invasion of A549” value (A549 cells [2])?
**A.** The value was “significant anti-invasive and antimigratory actions”.

**Q.** What about the “toxicity to 16HBE cells” value (16HBE cells) of the same compound?
**A.** Its value is “higher sensitivity”.

**Q.** What about the “toxicity to LO2 cells” value (LO2 cells) of the same compound?
**A.** Its value is “higher sensitivity”.

**Q.** Which “apoptosis of PC-9/GR cells” value (PC-9/GR cells) does the source give for `COc1cc2ncnc(Nc3ccc(F)c(Cl)c3)c2cc1OCCCN1CCOCC1` [Gef, Gefitinib, reference compound] here?
**A.** The value was “little effects”.

**Q.** And the “tumor growth of PC-9/GR xenografts” value (PC-9/GR xenografts)?
**A.** The value was “slight inhibitory effect”.

**Q.** What about the HDL-C [3, 4] of the same compound?
**A.** The HDL-C was 0.74 ± 0.28 mmol/L.

**Q.** What about the LDL-C [3, 4] of the same compound?
**A.** Its LDL-C is 0.89 ± 0.45 mmol/L.

**Q.** And the TC [3, 4]?
**A.** Its TC is 3.49 ± 0.56 mmol/L.

**Q.** What about the TG [3, 4] of the same compound?
**A.** The TG was 0.74 ± 0.16 mmol/L.

**Q.** What about the GR [3, 5] of the same compound?
**A.** The GR was 4.593±2.519 ×10^9/L.

**Q.** What about the “GR (%)” value [3, 5] of the same compound?
**A.** The value was 83.467±4.674%.

**Q.** And the HCT [3, 5]?
**A.** Its HCT is 50.933±6.123%.

**Q.** And the HGB [3, 5]?
**A.** Its HGB is 148.667 ± 17.616 g/L.

**Q.** What about the LY [3, 5] of the same compound?
**A.** The LY was 1.017±0.533 ×10^9/L.

**Q.** And the “LY (%)” value [3, 5]?
**A.** The value was 14.2±2.685%.

**Q.** What about the MCH [3, 5] of the same compound?
**A.** Its MCH is 15.367 ± 0.306 pg.

**Q.** What about the MCHC [3, 5] of the same compound?
**A.** Its MCHC is 292 ± 2.646 g/L.

**Q.** And the MO [3, 5]?
**A.** The MO was 0.213±0.274 ×10^9/L.

**Q.** What about the “MO (%)” value [3, 5] of the same compound?
**A.** Its value is 5.067±1.582%.

**Q.** And the MPV [3, 5]?
**A.** The MPV was 6.933 ± 0.351 fL.

**Q.** And the PCT [3, 5]?
**A.** Its PCT is 0.653±0.110 mL/L.

**Q.** What about the PLT [3, 5] of the same compound?
**A.** Its PLT is 934.333±117.1 ×10^9/L.

**Q.** What about the RBC [3, 5] of the same compound?
**A.** The RBC was 9.687±1.162 ×10^12/L.

**Q.** What about the WBC [3, 5] of the same compound?
**A.** Its WBC is 6.483±1.439 ×10^8/L.
